Assay results as given in patent US10280209B2 (YISSUM RESEARCH DEVELOPMENT COMPANY OF THE HEBREW …, priority 2013, dated 2019).
Where “and” joins values, the source holds several entries; their conditions need not be identical. Equal entries are not always repeated. Square brackets hold non-standard residues; d marks the D form. Ends that are not written are not given here.

Tests used:
adjuvant arthritis = assay: Adjuvant arthritis model; conditions: rat, in vivo
human PBMC = assay: Cytokine induction by peptides alone in human PBMC (ELISA); type: cell-based; conditions: 10 μg/ml peptide, no inducer
Protocol: (§1) Peripheral blood mononuclear cells (PBMC) from healthy human donors were separated on Ficoll Paque (Amersham), washed twice with 50 ml of RPMI 1640 medium, re-suspended at a density of 4×10^6 cells/ml and cultured in this medium supplemented with 2% fetal calf serum, 2 mM glutamine, 10 mM Minimum Essential Medium (MEM) nonspecific amino acids, […], 10 mM Hepes pH 7.2, 5×10^−5 M 2-mercaptoethanol, 100 u/ml penicillin, 100 μg/ml streptomycin and 5 μg/ml nystatin. Mouse anti-human monoclonal antibodies αCD3 (clone UCHT1; 100 ng/ml) and αCD28 (clone 37407; 2.5 μg/ml) (both from R&D Systems) were used as inducers. Cytokines in culture medium were determined with Quantikine ELISA kits (R&D Systems) according to the manufacturer's instructions.

CD28 = target: T1, CD28 (Homo sapiens, UniProt P10747); assay: αCD3/αCD28-induced cytokine expression in human PBMC (ELISA); type: cell-based; conditions: αCD3/αCD28, 10 μg/ml peptide
T1 construct: endogenous in cells; host or cells: human PBMC
Protocol: as §1

signaling through CD3 = assay: αCD3-induced cytokine expression in human PBMC (ELISA); type: cell-based; conditions: αCD3 alone, 10 μg/ml peptide
Protocol: as §1

human IgG = assay: Surface plasmon resonance, human IgG control on immobilized peptide; type: binding; conditions: SPR, studied in parallel
Protocol: Peptides were diluted to 10-200 μg/ml in 10 mM Sodium (Na) acetate pH 4.0 and immobilized on a CM5 sensor chip (BIAcore) using an amine-thiol coupling kit (BIAcore), respectively; the immobilized amounts were 500-1,000 resonance units. Analytes were injected at 20 μl/min in 25 mM HEPES pH 7.4, 150 mM NaCl, 3.4 mM EDTA, and 0.005% surfactant P20 under conditions showing no mass transport limitation. Regeneration was with 50 mM phosphoric acid. Kinetic analyses were performed at 25° C. in a BIAcore 3000 instrument, deducting the signal from the control flow cell from the binding signal. Analyte curves were run in duplicate; representative results are shown. Human IgG (Jackson Laboratories) served as control. Fusion of the IgG1-Fc domain to the 152-amino-acid extracellular domain of CD28 was performed as described below.

[1] = tested on: experimental autoimmune encephalitis; assay: Experimental autoimmune encephalitis (EAE) model; type: in vivo, mouse
[2] = tested on: collagen-induced arthritis; assay: Collagen-induced arthritis model; type: in vivo, mouse; conditions: mice
[3] = target: T2, staphylococcal enterotoxin B (SEB) (Staphylococcus aureus, UniProt P01552); conditions: previously shown (3); cited from earlier work
[4] = target: T2, staphylococcal enterotoxin B (SEB); conditions: previously shown (3); cited from earlier work; remark: listed apart in the source
[5] = FIG. 11A, daily from day 1, solumedrol 20 mg/kg, p2TB 50 μg, pe12-pal 100 μg
[6] = independent experiment FIG. 11B-D, daily, solumedrol 20 mg/kg, p2TB 50 μg, p2TB-pal 50 μg, pe12-pal 100 μg

Compound	Th1 cytokine response induced by peptide alone (human PBMC)	signaling through CD28 (IFN-γ, IL2, TNF-α secretion) (CD28)	αCD3-mediated induction of IFN-γ (signaling through CD3)	αCD3-mediated induction of IL2 (signaling through CD3)	αCD3-mediated induction of TNF-α (signaling through CD3)	affinity for IgG (human IgG)	reduction of cumulative clinical score [1, 5]	reduction of cumulative clinical score [1, 6]	further results
(D-A)SHFTHNRHGHST(D-A) ([dA]SHFTHNRHGHST[dA]) [pe12]	do not induce a significant Th1 cytokine response	inhibit signaling through CD28	did not inhibit	did not inhibit	did not inhibit	none of the peptides showed affinity for IgG	–	–	disease symptoms after termination of therapy on day 15 (adjuvant arthritis): leveled off and even showed a progressive further decline; cumulative reduction of disease symptoms (adjuvant arthritis; iv): 41%; disease symptoms during treatment, up to day 15 (adjuvant arthritis; iv): did not exhibit inhibition of symptoms
C[C@H]1C[C@@H]2[C@H]([C@@H](O)C[C@@]3(C)[C@H]2CC[C@]3(O)C(=O)COC(=O)CCC(=O)O)[C@@]2(C)C=CC(=O)C=C12 [solumedrol, reference compound]	–	–	–	–	–	–	50%	50%	–
(palmitoyl-lysine)PAVVLASS(D-A) (PAVVLASS[dA]; not fully specified (N-terminus)) [p2TB-pal]	–	–	–	–	–	–	–	–	reduction of cumulative clinical score ([1]; mouse, in vivo): 41% and 31% and 38%; reduction of cumulative disease symptoms ([2]; 100 μg once every 3 days starting on day 25): 34%
(palmitoyl-lysine)SHFTHNRHGHST(D-A) (SHFTHNRHGHST[dA]; not fully specified (N-terminus)) [pe12-pal]	–	–	–	–	–	–	63%	42%	reduction of cumulative clinical score ([1]; independent experiment FIG. 11B-D, once every 3 days, p2TB 100 μg, p2TB-pal 100 μg, pe12-pal 150 μg): 48%; amelioration of disease symptoms ([2]; 150 μg once every 3 days from disease onset): 31%; amelioration of disease symptoms ([2]; 200 μg once every 5 days from disease onset): 27%
(D-A)ASMDYPVL(D-A) ([dA]ASMDYPVL[dA])	–	–	–	–	–	–	–	–	ability to protect mice from lethal SEB challenge after scrambling of p2TA sequence [3]: strongly impair; ability to bind directly to SEB after scrambling of p2TA sequence [4]: strongly impair
(D-A)PAVVLASS(D-A) ([dA]PAVVLASS[dA]) [p2TB, CTLA-4 homodimer interface peptide abutted by D-Ala at both termini]	do not induce a significant Th1 cytokine response	inhibit signaling through CD28	did not inhibit	did not inhibit	did not inhibit	none of the peptides showed affinity for IgG	–	–	–
